Laboratory results: US20020019421A1, “Compositions and therapy for substance addiction” (priority 2000, published 2002)
Values joined by “and” are separate entries in the source; they are usually repeats but may differ in a detail not shown here. Equal values may be shown once.

Tests used:
[1] = system: striatal monoamine oxidase; experiment: Inhibition of striatal monoamine oxidase in mice; format: in vivo
Protocol: (§1) The inhibitor of monoamine oxidase inhibitor is administered in an effective amount, which is that amount necessary to alleviate, reduce, attenuate, or eliminate the symptoms associated with the addictive disorder, disorder or condition to be treated or to slow disease progression. The monoamine oxidase inhibitor can also be administered prophylactically, in order to prevent symptoms associated with the addicitve disorder or disease, or to delay onset of symptoms associated withdrawal or abstinence. If more than one inhibitor of monoamine oxidase inhibitor is used, the effective amount is that amount of the combination of inhibitor of monoamine oxidase inhibitors that is necessary to alleviate, reduce, eliminate, prevent, or delay onset of the symptoms associated with withdrawal or abstinence. The effective amount will be determined on an individual basis, and will be based in part, on consideration of the particular monoamine oxidase inhibitor, the individual's size and gender, the severity of the symptoms to be treated, the result sought, and the disease, disorder or condition to be treated or prevented. […] The effective amount can be determined by one of ordinary skill in the art, employing such factors and using no more than routine experimentation.

[2] = system: intestinal monoamine oxidase; experiment: Intestinal monoamine oxidase activity maintained in mice; format: in vivo; conditions: 0.6 mg/kg
Protocol: as §1

smoking cessation = conditions: cited from earlier work
[3] = system: subjects addicted to chronic cigarette smoking; experiment: Experiment One: prospective open trial, self-reported cigarette consumption after quit day
Protocol: An experimental clinical trial was performed to assess the effect of selegiline alone and in combination with co-administration of nicotine.
In this prospective open trial subjects addicted to chronic cigarette smoking were administered either oral selegiline tablets (Jumex, Janssen, Belgium) 5 mg. b.i.d. or administered, for subjects 8 and 9, combined co-administration of both oral selegiline and nicotine replacement therapy via transdermal patch. Subjects were then monitored for their level of tobacco product consumption during the course of the next 8 weeks. The study protocol relied on the subjective report of the patient for measurement of the therapy outcome, i.e. reporting of level of cigarette consumption was elicited from the participating subjects at weekly intervals intervals throughout the course of the study, unless the patient was using nictotine replacement therapy. Initial, trial entry levels of craving were determined by administration of the Fagerström Tolerance Score exam, while initial level of mood was monitored by administering the Beck Depression Inventory.
Following one week on the medication, the subjects were instructed to quit smoking on “quit day”, as predetermined at the initiation of the study.

With `C#CCN(C)CCCOc1ccc(Cl)cc1Cl` [clorgyline] the “preferred effective amount to inhibit 90% of striatal monoamine oxidase while maintaining 50% of intestinal activity” value [1] was 0.6 mg/kg, the “inhibition of striatal monoamine oxidase” value ([1]; 0.6 mg/kg) was 90% and the “intestinal monoamine oxidase activity maintained” value [2] was 50%.

For `CN1CCC[C@H]1c1cccnc1` [nicotine], the “success rate, nicotine patch alone” value (smoking cessation; N. Eng J Med 1999, 340:685-91) is given as 9.8%, the “success rate for smoking cessation, nicotine transdermal patch as sole therapy” value (smoking cessation; current best accepted / known efficacy) is given as “about 20%” and the “cigarettes consumed per week” value ([3]; week 1 from quit day, oral selegiline 5 mg b.i.d. and/or nicotine transdermal patch) is given as 0 Cig/wk. The “cigarettes consumed per week” value ([3]; week 2 from quit day) was 0 Cig/wk, the “cigarettes consumed per week” value ([3]; week 3 from quit day) was 0 Cig/wk and the “cigarettes consumed per week” value ([3]; week 4 from quit day) was 0 Cig/wk. The “cigarettes consumed per week” value ([3]; week 5 from quit day) was 0 Cig/wk, the “cigarettes consumed per week” value ([3]; week 6 from quit day) was 21 Cig/wk and the “cigarettes consumed per week” value ([3]; week 7 from quit day) was 35 Cig/wk. For the same compound, the “cigarettes consumed per week” value ([3]; week 8 from quit day) was 60 Cig/wk.

In the case of `C#CCN(C)[C@H](C)Cc1ccccc1` [selegiline, (R)-(−)-N,2-dimethyl-N-2-propynylphenethylamine], the “efficacy: subjects treated successfully (abstaining or significantly reducing cigarette smoking)” value ([3]; during treatment, Table 2) was “about 30%”, the “outcome in words: effect on cigarette smoking” value ([3]; open trial, 8 weeks) was “effective treatment for substance addiction” and the “cigarettes consumed per week” value ([3]; week 1 from quit day, oral selegiline 5 mg b.i.d. and/or nicotine transdermal patch, listed as S) was 0 Cig/wk (3×) and 21 Cig/wk and 140 Cig/wk and 210 Cig/wk and 35 Cig/wk. For the same compound, the “cigarettes consumed per week” value ([3]; week 2 from quit day, listed as S) was 0 Cig/wk (3×) and 21 Cig/wk and 70 Cig/wk, the “cigarettes consumed per week” value ([3]; week 3 from quit day, listed as S) was 0 Cig/wk (2×) and 25 Cig/wk and 3 Cig/wk and the “cigarettes consumed per week” value ([3]; week 4 from quit day, listed as S) was 0 Cig/wk (3×) and 25 Cig/wk. The “cigarettes consumed per week” value ([3]; week 5 from quit day, listed as S) was 0 Cig/wk (2×) and 25 Cig/wk, the “cigarettes consumed per week” value ([3]; week 6 from quit day) was 0 Cig/wk and the “cigarettes consumed per week” value ([3]; week 7 from quit day, listed as S) was 0 Cig/wk (2×) and 21 Cig/wk. For the same compound, the “cigarettes consumed per week” value ([3]; week 8 from quit day, listed as S) was 0 Cig/wk and 21 Cig/wk and the “cigarettes consumed per week” value ([3]; week 9 from quit day) was 21 Cig/wk.
